Experiment: Free radicals generated inside a formulation containing perfume after UV irradiation (ESR, spin marker PCA)
Type: physicochemical
Conditions: 0.1% (w/w) perfume in formulation, diluted 1:10 in water, 0.01 mM PCA; UVB 23,5 W/m^2, UVA 180 W/m^2
Description: To measure the free radicals generation inside a formulation after UV irradiation, the concentration of a photostable spin marker added to the tested samples is followed by Electron Spin Resonance (ESR) spectroscopy before and after UV irradiation of the tested samples. The photostable spin marker will promptly react with the free radical generated in the formulation after UV irradiation.
0.1% (w/w) of the perfume to be tested is incorporated into the formulation, the formulation is then diluted in distillated water (1:10 dilution factor) and a water solution of the spin marker PCA (2,2,5,5,-tetramethyl pyrrolidine N-oxyl) is added to obtain a spin marker concentration of 0.01 mM. […] The sample is inserted in a capillary quartz tube to perform ESR measurement before and after 20 minutes of UV irradiation. The irradiances as integrated value over the spectral ranges of the solar simulator can exemplarily be E=23,5W/m^2 for UVB and 180W/m^2 for UVA.
The percentage of UV-induced free radicals inside the formulation containing the perfume to be tested serves as indicator to the sensitivity of said perfume.
The Electron Spin Resonance (ESR) measurements were performed with a high sensitive X-band bench top Electron Spin Resonance Spectrometer MiniScope MS300, supplied from Magnettech GmbH Berlin, Germany.
To measure the free radicals generation inside the formulation after UV irradiation, the concentration of a photostable spin marker added to the tested samples was followed by
Electron Spin Resonance (ESR) spectroscopy before and after UV irradiation of the tested samples. The photostable spin marker promptly reacted with the free radical generated in the formulation after UV irradiation.
0.1% (w/w) of the perfume to be tested (compare to Table 1) was incorporated into the formulation. The formulation was then diluted in distillated water (1:10 dilution factor) and a water solution of the spin marker PCA (2,2,5,5,-tetramethyl pyrrolidine N-oxyl) was added to obtain a spin marker concentration of 0.01 mM. Knowing the concentration of the spin trap PCA within the formulation, the amount of reduced PCA was calculated. The sample was inserted in a capillary quartz tube to perform ESR measurement before and after 20 minutes of UV irradiation. The irradiances as integrated value over the spectral ranges of the solar simulator were E=23,5 W/m^2 for UVB and 180 W/m^2 for UVA.

Row | % free radicals after 20 min UV irradiation [%] | Compound
1 | 17.5 | O=C(OCc1ccccc1)c1ccccc1O [Benzyl Salicylate, benzyl 2-hydroxybenzoate]
2 | 85.9 | COc1cc(C=O)ccc1O [Vanillin, 4-hydroxy-3-methoxybenzaldehyde]
3 | 16.5 | CC(C)=CCCC(C)=CC=O [Citral, 3,7-dimethylocta-2,6-dienal]
4 | 6.6 | CC(C)=CCCC(C)CCO (stereo not shown) [Citronellol, 3,7-dimethyloct-6-en-1-ol]
5 | 3.7 | CC(CC=O)CCCC(C)(C)O (stereo not shown) [Hydroxycitronellal]
6 | 11.5 | O=c1ccc2ccccc2o1 [Coumarin, 2H-chromen-2-one]
7 | 4.4 | OCc1ccccc1 [Benzyl Alcohol]

Reference: patent publication US20230121157A1, “ANTI-AGING CARE COMPOSITION COMPRISING PERFUMES” (BASF SE, priority 2020, published 2023)
